Numbers after ± are expanded uncertainties.
Legend:
[1] = Liquid; for viscosity: Capillary tube (Ostwald / Ubbelohde) method; for mass density: Siemens Coriolis flowmeter
[2] = xn = mol fraction of the nth substance listed; conditions: Liquid, x2 = 0; for viscosity: Capillary tube (Ostwald / Ubbelohde) method; for mass density: Siemens Coriolis flowmeter

CCCCCCC [heptane]
viscosity ([1]; 298.15 K, 100 kPa): 0.404 ± 0.013 mPa·s | mass density ([1]; 298.15 K, 100 kPa): 680 ± 2 kg/m3 | viscosity ([1]; 298.15 K, 3000 kPa): 0.415 ± 0.013 mPa·s | mass density ([1]; 298.15 K, 3000 kPa): 683 ± 2 kg/m3 | viscosity ([1]; 298.15 K, 6000 kPa): 0.42 ± 0.013 mPa·s | mass density ([1]; 298.15 K, 6000 kPa): 686 ± 2 kg/m3 | viscosity ([1]; 298.15 K, 9000 kPa): 0.432 ± 0.013 mPa·s | mass density ([1]; 298.15 K, 9000 kPa): 689 ± 2 kg/m3 | viscosity ([1]; 298.15 K, 12000 kPa): 0.446 ± 0.014 mPa·s | mass density ([1]; 298.15 K, 12000 kPa): 691 ± 2 kg/m3 | viscosity ([1]; 298.15 K, 15000 kPa): 0.454 ± 0.014 mPa·s | mass density ([1]; 298.15 K, 15000 kPa): 694 ± 2 kg/m3 | viscosity ([1]; 308.15 K, 100 kPa): 0.367 ± 0.011 mPa·s | mass density ([1]; 308.15 K, 100 kPa): 670 ± 2 kg/m3 | viscosity ([1]; 308.15 K, 3000 kPa): 0.371 ± 0.012 mPa·s | mass density ([1]; 308.15 K, 3000 kPa): 674 ± 2 kg/m3 | viscosity ([1]; 308.15 K, 6000 kPa): 0.385 ± 0.012 mPa·s | mass density ([1]; 308.15 K, 6000 kPa): 677 ± 2 kg/m3 | viscosity ([1]; 308.15 K, 9000 kPa): 0.396 ± 0.012 mPa·s | mass density ([1]; 308.15 K, 9000 kPa): 680 ± 2 kg/m3 | viscosity ([1]; 308.15 K, 12000 kPa): 0.404 ± 0.013 mPa·s | mass density ([1]; 308.15 K, 12000 kPa): 683 ± 2 kg/m3 | viscosity ([1]; 308.15 K, 15000 kPa): 0.411 ± 0.013 mPa·s | mass density ([1]; 308.15 K, 15000 kPa): 685 ± 2 kg/m3 | viscosity ([1]; 318.15 K, 100 kPa): 0.33 ± 0.01 mPa·s | mass density ([1]; 318.15 K, 100 kPa): 662 ± 2 kg/m3 | viscosity ([1]; 318.15 K, 3000 kPa): 0.339 ± 0.011 mPa·s | mass density ([1]; 318.15 K, 3000 kPa): 666 ± 2 kg/m3 | viscosity ([1]; 318.15 K, 6000 kPa): 0.347 ± 0.011 mPa·s | mass density ([1]; 318.15 K, 6000 kPa): 669 ± 2 kg/m3 | viscosity ([1]; 318.15 K, 9000 kPa): 0.359 ± 0.011 mPa·s | mass density ([1]; 318.15 K, 9000 kPa): 672 ± 2 kg/m3 | viscosity ([1]; 318.15 K, 12000 kPa): 0.369 ± 0.012 mPa·s | mass density ([1]; 318.15 K, 12000 kPa): 675 ± 2 kg/m3 | viscosity ([1]; 318.15 K, 15000 kPa): 0.374 ± 0.012 mPa·s | mass density ([1]; 318.15 K, 15000 kPa): 678 ± 2 kg/m3

CCCCCCC [heptane] + CCCCCCCCCC(=O)OC
viscosity ([2]; 298.15 K, 100 kPa): 0.404 ± 0.013 mPa·s | mass density ([2]; 298.15 K, 100 kPa): 680 ± 2 kg/m3 | viscosity ([2]; 298.15 K, 3000 kPa): 0.415 ± 0.013 mPa·s | mass density ([2]; 298.15 K, 3000 kPa): 683 ± 2 kg/m3 | viscosity ([2]; 298.15 K, 6000 kPa): 0.42 ± 0.013 mPa·s | mass density ([2]; 298.15 K, 6000 kPa): 686 ± 2 kg/m3 | viscosity ([2]; 298.15 K, 9000 kPa): 0.432 ± 0.013 mPa·s | mass density ([2]; 298.15 K, 9000 kPa): 689 ± 2 kg/m3 | viscosity ([2]; 298.15 K, 12000 kPa): 0.446 ± 0.014 mPa·s | mass density ([2]; 298.15 K, 12000 kPa): 691 ± 2 kg/m3 | viscosity ([2]; 298.15 K, 15000 kPa): 0.454 ± 0.014 mPa·s | mass density ([2]; 298.15 K, 15000 kPa): 694 ± 2 kg/m3 | viscosity ([2]; 308.15 K, 100 kPa): 0.367 ± 0.011 mPa·s | mass density ([2]; 308.15 K, 100 kPa): 670 ± 2 kg/m3 | viscosity ([2]; 308.15 K, 3000 kPa): 0.371 ± 0.012 mPa·s | mass density ([2]; 308.15 K, 3000 kPa): 674 ± 2 kg/m3 | viscosity ([2]; 308.15 K, 6000 kPa): 0.385 ± 0.012 mPa·s | mass density ([2]; 308.15 K, 6000 kPa): 677 ± 2 kg/m3 | viscosity ([2]; 308.15 K, 9000 kPa): 0.396 ± 0.012 mPa·s | mass density ([2]; 308.15 K, 9000 kPa): 680 ± 2 kg/m3 | viscosity ([2]; 308.15 K, 12000 kPa): 0.404 ± 0.013 mPa·s | mass density ([2]; 308.15 K, 12000 kPa): 683 ± 2 kg/m3 | viscosity ([2]; 308.15 K, 15000 kPa): 0.411 ± 0.013 mPa·s | mass density ([2]; 308.15 K, 15000 kPa): 685 ± 2 kg/m3 | viscosity ([2]; 318.15 K, 100 kPa): 0.33 ± 0.01 mPa·s | mass density ([2]; 318.15 K, 100 kPa): 662 ± 2 kg/m3 | viscosity ([2]; 318.15 K, 3000 kPa): 0.339 ± 0.011 mPa·s | mass density ([2]; 318.15 K, 3000 kPa): 666 ± 2 kg/m3 | viscosity ([2]; 318.15 K, 6000 kPa): 0.347 ± 0.011 mPa·s | mass density ([2]; 318.15 K, 6000 kPa): 669 ± 2 kg/m3 | viscosity ([2]; 318.15 K, 9000 kPa): 0.359 ± 0.011 mPa·s | mass density ([2]; 318.15 K, 9000 kPa): 672 ± 2 kg/m3 | viscosity ([2]; 318.15 K, 12000 kPa): 0.369 ± 0.012 mPa·s | mass density ([2]; 318.15 K, 12000 kPa): 675 ± 2 kg/m3 | viscosity ([2]; 318.15 K, 15000 kPa): 0.374 ± 0.012 mPa·s | mass density ([2]; 318.15 K, 15000 kPa): 678 ± 2 kg/m3

CCCCCCCCCC(=O)OC [methyl decanoate]
viscosity ([1]; 298.15 K, 100 kPa): 1.934 ± 0.06 mPa·s | mass density ([1]; 298.15 K, 100 kPa): 868 ± 2 kg/m3 | viscosity ([1]; 298.15 K, 3000 kPa): 1.992 ± 0.061 mPa·s | mass density ([1]; 298.15 K, 3000 kPa): 870 ± 2 kg/m3 | viscosity ([1]; 298.15 K, 6000 kPa): 2.058 ± 0.064 mPa·s | mass density ([1]; 298.15 K, 6000 kPa): 872 ± 2 kg/m3 | viscosity ([1]; 298.15 K, 9000 kPa): 2.123 ± 0.066 mPa·s | mass density ([1]; 298.15 K, 9000 kPa): 874 ± 2 kg/m3 | viscosity ([1]; 298.15 K, 12000 kPa): 2.209 ± 0.068 mPa·s | mass density ([1]; 298.15 K, 12000 kPa): 877 ± 2 kg/m3 | viscosity ([1]; 298.15 K, 15000 kPa): 2.272 ± 0.07 mPa·s | mass density ([1]; 298.15 K, 15000 kPa): 878 ± 2 kg/m3 | viscosity ([1]; 308.15 K, 100 kPa): 1.628 ± 0.05 mPa·s | mass density ([1]; 308.15 K, 100 kPa): 860 ± 2 kg/m3 | viscosity ([1]; 308.15 K, 3010 kPa): 1.675 ± 0.052 mPa·s | mass density ([1]; 308.15 K, 3010 kPa): 862 ± 2 kg/m3 | viscosity ([1]; 308.15 K, 6000 kPa): 1.727 ± 0.053 mPa·s | mass density ([1]; 308.15 K, 6000 kPa): 864 ± 2 kg/m3 | viscosity ([1]; 308.15 K, 9000 kPa): 1.779 ± 0.055 mPa·s | mass density ([1]; 308.15 K, 9000 kPa): 866 ± 2 kg/m3 | viscosity ([1]; 308.15 K, 12000 kPa): 1.835 ± 0.057 mPa·s | mass density ([1]; 308.15 K, 12000 kPa): 869 ± 2 kg/m3 | viscosity ([1]; 308.15 K, 15000 kPa): 1.888 ± 0.058 mPa·s | mass density ([1]; 308.15 K, 15000 kPa): 871 ± 2 kg/m3 | viscosity ([1]; 318.15 K, 100 kPa): 1.38 ± 0.043 mPa·s | mass density ([1]; 318.15 K, 100 kPa): 853 ± 2 kg/m3 | viscosity ([1]; 318.15 K, 3000 kPa): 1.417 ± 0.044 mPa·s | mass density ([1]; 318.15 K, 3000 kPa): 854 ± 2 kg/m3 | viscosity ([1]; 318.15 K, 6000 kPa): 1.462 ± 0.045 mPa·s | mass density ([1]; 318.15 K, 6000 kPa): 856 ± 2 kg/m3 | viscosity ([1]; 318.15 K, 9000 kPa): 1.491 ± 0.046 mPa·s | mass density ([1]; 318.15 K, 9000 kPa): 859 ± 2 kg/m3 | viscosity ([1]; 318.15 K, 12000 kPa): 1.534 ± 0.047 mPa·s | mass density ([1]; 318.15 K, 12000 kPa): 861 ± 2 kg/m3 | viscosity ([1]; 318.15 K, 15000 kPa): 1.578 ± 0.049 mPa·s | mass density ([1]; 318.15 K, 15000 kPa): 863 ± 2 kg/m3

Source: the NIST ThermoML archive (doi:10.1016/j.tca.2018.10.018)
